Reference: PubChem BioAssay AID652275 (Broad Institute, 2013)
Inconclusive results are not listed. The source made the active and inactive calls. No rule for the calls is given here.

System: not listed separately
Test: T. cruzi growth inhibition in host cells, dose response, cell-based, plate reader, dry powder, set 2 (AID 652275)
Conditions: T. cruzi proliferation in host cells, plate reader; at 16 µM (top of the series)

Compound | activity change, negative = inhibition
CN(C)CC#Cc1cccc(-c2nc(C(=O)O)cc3c2[C@H](CCO)N(S(=O)C(C)(C)C)C3)c1 (stereo partly specified) | -23.9% (inactive)
COCCNC(=O)c1cc2c(c(-c3cccc(C#CCN(C)C)c3)n1)[C@H](CCO)N(S(=O)C(C)(C)C)C2 (stereo partly specified) | -35.9% (inactive)
C[C@@H]1CN([C@@H](C)CO)C(=O)c2cccc(NC(=O)c3ccncc3)c2O[C@H]1CN(C)C | 18.7% (inactive)
CC(C)N1C[C@@H](C)[C@H](CN(C)Cc2ccc(Oc3ccccc3)cc2)Oc2c(C(=O)O)cccc2C1=O | -33.8% (inactive)
CC(C)N1C[C@@H](CN)Oc2c(NC(=O)c3ccncc3)cccc2C1=O | -29% (inactive)
CC(C)N1C[C@@H](C)[C@H](CN(C)Cc2ccc(OCCCC(F)(F)C(F)(F)C(F)(F)C(F)(F)C(F)(F)C(F)(F)C(F)(F)C(F)(F)F)cc2)Oc2c(NC(=O)c3ccncc3)cccc2C1=O | 33.7% (inactive)
CC(C)N1C[C@@H](C)[C@H](CN(C)C(=O)OC(C)(C)C)Oc2c(C#N)cccc2C1=O | -37% (inactive)
CN(C)CC#Cc1cccc(-c2nc(C(=O)N3CCN(C)CC3)cc3c2[C@H](CCO)N(S(=O)C(C)(C)C)C3)c1 (stereo partly specified) | 1.54% (inactive)
C[C@@H](CO)N1CC[C@H](CNC(=O)OC(C)(C)C)Oc2c(cccc2[N+](=O)[O-])C1=O | -13.9% (inactive)
CN(C)CC#Cc1cccc(-c2nc(C(=O)N3CCN(C)CC3)cc3c2[C@@H](CCO)N(S(=O)C(C)(C)C)C3)c1 (stereo partly specified) | -4.18% (inactive)

System: T. cruzi proliferation in host cells, plate reader
Test: as above
Conditions: not given

Compound | AC50
C[C@@H]1CN([C@@H](C)CO)C(=O)c2cccc(NC(=O)c3ccncc3)c2O[C@H]1CN(C)Cc1ccc(Oc2ccccc2)cc1 | 1.11 nM
